For 22 compounds, IC50 results are on record in patent publication US11084800B2 (Achillion Pharmaceuticals, Inc., priority 2017, dated 2021).

A word on the pIC50: it is the negative decadic logarithm of the IC50, by convention in mol/L.

pIC50: −log10 of the molar value. A value given as a limit tells only on which side of the number the result lay.

In the test the target is Human Factor D (Homo sapiens (Human), UniProt P00746). Briefly: Human Factor D Assay. The format is biochemical. As to conditions: Table 6; Factor D 80 nM, substrate Z-L-Lys-SBz; read-out: IC50. The method, boiled down: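 Thioester substrate Z-L-Lys-SBz (100 μM) with Ellman's reagent DTNB (100 μM) reports activity of 80 nM human serum-derived enzyme, kinetically at 405 nm over 30 min. Compound preincubated 5 min, room temperature, pH 7.5 Tris/1 M NaCl; IC50 by nonlinear fit of rates.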
Sequence of Human Factor D (P00746 26-253): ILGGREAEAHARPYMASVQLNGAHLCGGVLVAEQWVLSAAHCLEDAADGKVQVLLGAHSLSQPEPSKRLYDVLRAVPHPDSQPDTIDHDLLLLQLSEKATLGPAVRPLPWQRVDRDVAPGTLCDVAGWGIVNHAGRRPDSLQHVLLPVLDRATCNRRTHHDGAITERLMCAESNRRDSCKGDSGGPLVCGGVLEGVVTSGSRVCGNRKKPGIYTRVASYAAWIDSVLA
`Cc1ncc(-c2ccc3c(c(C(N)=O)nn3CC(=O)N3[C@H](C(=O)Nc4nc(Br)ccc4C)C[C@@]4(C)C[C@@H]34)c2F)cn1` [Compound 145, 1-(2-((1R,3S,5R)-3-((6-Bromo-3-methylpyridin-2-yl)carbamoyl)-5-methyl-2-azabicyclo[3.1.0]hexan-2-yl)-2-oxoethyl)-4-fluoro-5-(2-methylpyrimidin-5-yl)-1H-indazole-3-carboxamide]: the pIC50 was more than 6.00.

For `CC(=O)c1nn(CC(=O)N2[C@H](C(=O)Nc3nc(Br)ccc3C)C[C@@]3(C)C[C@@H]23)c2c(C(F)F)cc(-c3cnc(C)nc3)cc12` [Compound 146, (1R,3S,5R)-2-(2-(3-Acetyl-7-(difluoromethyl)-5-(2-methylpyrimidin-5-yl)-1H-indazol-1-yl)acetyl)-N-(6-bromo-3-methylpyridin-2-yl)-5-methyl-2-azabicyclo[3.1.0]hexane-3-carboxamide], the pIC50 was more than 6.00.

Consider `CC(=O)c1nn(CC(=O)N2[C@H](C(=O)Nc3nc(Br)ccc3C)C[C@@]3(C)C[C@@H]23)c2c(F)cc(-c3cnc(C)nc3)cc12` [Compound 147, (1R,3S,5R)-2-(2-(3-Acetyl-7-fluoro-5-(2-methylpyrimidin-5-yl)-1H-indazol-1-yl)acetyl)-N-(6-bromo-3-methylpyridin-2-yl)-5-methyl-2-azabicyclo[3.1.0]hexane-3-carboxamide], for which the pIC50 is more than 6.00.

Turning to `CC(=O)c1nn(CC(=O)N2[C@H](C(=O)Nc3nc(Br)ccc3C)C[C@@]3(C)C[C@@H]23)c2ccc(-c3cnc(CC(=O)N(C)C)nc3)cc12` [Compound 148, (1R,3S,5R)-2-(2-(3-Acetyl-5-(2-(2-(dimethylamino)-2-oxoethyl)pyrimidin-5-yl)-1H-indazol-1-yl)acetyl)-N-(6-bromo-3-methylpyridin-2-yl)-5-methyl-2-azabicyclo[3.1.0]hexane-3-carboxamide], the pIC50 is more than 6.00.

For the compound `CC(=O)c1nn(CC(=O)N2[C@H](C(=O)Nc3nc(Br)ccc3C)C[C@@]3(CN4CCC4)C[C@@H]23)c2c(C)cc(-c3cnc(C)nc3)cc12` [Compound 149, (1R,3S,5R)-2-(2-(3-Acetyl-7-methyl-5-(2-methylpyrimidin-5-yl)-1H-indazol-1-yl)acetyl)-5-(azetidin-1-ylmethyl)-N-(6-bromo-3-methylpyridin-2-yl)-2-azabicyclo[3.1.0]hexane-3-carboxamide], the pIC50 was more than 6.00.

Take `CC(=O)c1nn(CC(=O)N2[C@H](C(=O)Nc3nc(Br)ccc3C)C[C@@]3(CN4CC(F)(F)C4)C[C@@H]23)c2c(C)cc(-c3cnc(C)nc3)cc12` [Compound 150, (1R,3S,5R)-2-(2-(3-Acetyl-7-methyl-5-(2-methylpyrimidin-5-yl)-1H-indazol-1-yl)acetyl)-N-(6-bromo-3-methylpyridin-2-yl)-5-((3,3-difluoroazetidin-1-yl)methyl)-2-azabicyclo[3.1.0]hexane-3-carboxamide]: the pIC50 is more than 6.00.

On to `CC(=O)c1nn(CC(=O)N2[C@H](C(=O)Nc3nc(Br)ccc3C)C[C@@]3(CNC4CC4)C[C@@H]23)c2ccc(-c3cnc(C)nc3)cc12` [Compound 151, (1R,3S,5R)-2-(2-(3-Acetyl-5-(2-methylpyrimidin-5-yl)-1H-indazol-1-yl)acetyl)-N-(6-bromo-3-methylpyridin-2-yl)-5-((cyclopropylamino)methyl)-2-azabicyclo[3.1.0]hexane-3-carboxamide], for which the pIC50 was more than 6.00.

As to `COCc1ccc(Br)nc1NC(=O)[C@@H]1C[C@@]2(COC)C[C@H]2N1C(=O)Cn1nc(C(C)=O)c2cc(-c3cnc(C)nc3)ccc21` [Compound 152, (1R,3S,5S)-2-(2-(3-Acetyl-5-(2-methylpyrimidin-5-yl)-1H-indazol-1-yl)acetyl)-N-(6-bromo-3-(methoxymethyl)pyridin-2-yl)-5-(methoxymethyl)-2-azabicyclo[3.1.0]hexane-3-carboxamide], the pIC50 was more than 6.00.

In the case of `COCc1ccc(Br)nc1NC(=O)[C@@H]1C[C@@]2(CNC(=O)[C@@H](NC(=O)OC)C(C)C)C[C@H]2N1C(=O)Cn1nc(C(C)=O)c2cc(-c3cnc(C)nc3)ccc21` [Compound 153, Methyl ((S)-1-((((1R,3S,5R)-2-(2-(3-acetyl-5-(2-methylpyrimidin-5-yl)-1H-indazol-1-yl)acetyl)-3-((6-bromo-3-(methoxymethyl)pyridin-2-yl)carbamoyl)-2-azabicyclo[3.1.0]hexan-5-yl)methyl)amino)-3-methyl-1-oxobutan-2-yl)carbamate], the pIC50 was more than 6.00.

On to `C=CCOC[C@@]12C[C@@H](C(=O)Nc3nc(Br)ccc3C)N(C(=O)Cn3nc(C(C)=O)c4cc(-c5cnc(C)nc5)cc(CC=C)c43)[C@@H]1C2` [Compound 154, (1R,3S,5S)-2-(2-(3-acetyl-7-allyl-5-(2-methylpyrimidin-5-yl)-1H-indazol-1-yl)acetyl)-5-((allyloxy)methyl)-N-(6-bromo-3-methylpyridin-2-yl)-2-azabicyclo[3.1.0]hexane-3-carboxamide], for which the pIC50 was more than 6.00.

For `CC(=O)c1nn(CC(=O)N2[C@H](C(=O)Nc3nc(Br)ccc3C)C[C@@]3(CN(C)C)C[C@@H]23)c2ccc(-c3cnc(C)nc3)c(F)c12` [Compound 155, (1R,3S,5R)-2-(2-(3-Acetyl-4-fluoro-5-(2-methylpyrimidin-5-yl)-1H-indazol-1-yl)acetyl)-N-(6-bromo-3-methylpyridin-2-yl)-5-((dimethylamino)methyl)-2-azabicyclo[3.1.0]hexane-3-carboxamide], the pIC50 was more than 6.00.

Consider `CC(=O)c1nn(CC(=O)N2[C@H]3C[C@@]3(CN(C)C)C[C@H]2C(=O)Nc2nc(Br)ccc2C)c2ccc(-c3cnc(C)nc3)c(F)c12` [Compound 156, (1S,3S,5S)-2-(2-(3-Acetyl-4-fluoro-5-(2-methylpyrimidin-5-yl)-1H-indazol-1-yl)acetyl)-N-(6-bromo-3-methylpyridin-2-yl)-5-((dimethylamino)methyl)-2-azabicyclo[3.1.0]hexane-3-carboxamide], for which the pIC50 is less than 5.00.

As to `CC(=O)c1nn(CC(=O)N2[C@H](C(=O)Nc3nc(Br)ccc3C)C[C@@]3(COCCN(C)C)C[C@@H]23)c2ccc(-c3cnc(C)nc3)cc12` [Compound 157], the pIC50 was more than 6.00.

As to `CC(=O)c1nn(CC(=O)N2C[C@H]3C[C@H]3[C@H]2C(=O)Nc2nc(Br)c(F)cc2C)c2cnc(-c3cnc(C)nc3)cc12` [Compound 172, (1R,2S,5S)-3-(2-(3-Acetyl-5-(2-methylpyrimidin-5-yl)-1H-pyrazolo[3,4-c]pyridin-1-yl)acetyl)-N-(6-bromo-5-fluoro-3-methylpyridin-2-yl)-3-azabicyclo[3.1.0]hexane-2-carboxamide], the pIC50 was more than 6.00.

Consider `CC(=O)c1nn(CC(=O)N2[C@H](C(=O)Nc3nc(Br)ccc3C)C[C@@]3(C(N)=O)C[C@@H]23)c2c(C)cc(-c3cnc(C)nc3)cc12` [Compound 173, (1R,3S,5S)-2-(2-(3-acetyl-7-methyl-5-(2-methylpyrimidin-5-yl)-1H-indazol-1-yl)acetyl)-N3-(6-bromo-3-methylpyridin-2-yl)-2-azabicyclo[3 .1.0]hexane-3,5-dicarboxamide], for which the pIC50 is less than 5.00.

With `CC(=O)c1nn(CC(=O)N2[C@H](C(=O)Nc3nc(Br)ccc3C)C[C@@]3(C#N)C[C@@H]23)c2c(C)cc(-c3cnc(C)nc3)cc12` [Compound 174, (1R,3S,5S)-2-(2-(3-acetyl-7-methyl-5-(2-methylpyrimidin-5-yl)-1H-indazol-1-yl)acetyl)-N-(6-bromo-3-methylpyridin-2-yl)-5-cyano-2-azabicyclo[3.1.0]hexane-3-carboxamide], the pIC50 is less than 5.00.

As to `CC(=O)c1nn(CC(=O)N2C[C@@H](C(F)(F)F)C[C@H]2C(=O)Nc2nc(Br)ccc2C)c2c(C)cc(-c3cnc(C)nc3)cc12` [Compound 175], the pIC50 was more than 6.00.

`CC(=O)c1nn(CC(=O)N2[C@H](C(=O)Nc3nc(Br)ccc3C)C[C@@]3(CN(CCF)CCF)C[C@@H]23)c2c(C)cc(-c3cnc(C)nc3)cc12` [Compound 176]: the pIC50 is more than 6.00.

For `CC(=O)c1nn(CC(=O)N2[C@H](C(=O)Nc3nc(Br)ccc3CN3CC(F)(F)C3)C[C@@]3(C)C[C@@H]23)c2ccc(-c3cnc(C)nc3)cc12` [Compound 177, (1R,3S,5R)-2-(2-(3-Acetyl-5-(2-methylpyrimidin-5-yl)-1H-indazol-1-yl)acetyl)-N-(6-bromo-3-((3,3-difluoroazetidin-1-yl)methyl)pyridin-2-yl)-5-methyl-2-azabicyclo[3.1.0]hexane-3-carboxamide], the pIC50 was more than 6.00.

As to `CC(=O)c1nn(CC(=O)N2[C@H](C(=O)Nc3nc(Br)c(F)cc3C)C[C@@]3(C)C[C@@H]23)c2ccc(-c3cnc(C)nc3)cc12` [Compound 178, (1R,3S,5R)-2-(2-(3-Acetyl-5-(2-methylpyrimidin-5-yl)-1H-indazol-1-yl)acetyl)-N-(6-bromo-5-fluoro-3-methylpyridin-2-yl)-5-methyl-2-azabicyclo[3.1.0]hexane-3-carboxamide], the pIC50 was more than 6.00.

In the case of `CC(=O)c1nn(CC(=O)N2[C@H](C(=O)Nc3nc(Br)ccc3C)C[C@@]3(C)C[C@@H]23)c2ccc(-c3cnc4cc(C)nn4c3)cc12` [Compound 180, (1R,3S,5R)-2-(2-(3-Acetyl-5-(2-methylpyrazolo[1,5-a]pyrimidin-6-yl)-1H-indazol-1-yl)acetyl)-N-(6-bromo-3-methylpyridin-2-yl)-5-methyl-2-azabicyclo[3.1.0]hexane-3-carboxamide], the negative logarithm of the IC50 (pIC50) is more than 6.00.

`CC(=O)c1nn(CC(=O)N2[C@H](C(=O)Nc3nc(Br)c(F)cc3C)C[C@@]3(C)C[C@@H]23)c2ncc(-c3cnc(C)nc3)cc12` [Compound 182, (1R,3S,5R)-2-(2-(3-Acetyl-5-(2-methylpyrimidin-5-yl)-1H-pyrazolo[3,4-b]pyridin-1-yl)acetyl)-N-(6-bromo-5-fluoro-3-methylpyridin-2-yl)-5-methyl-2-azabicyclo[3.1.0]hexane-3-carboxamide]: the pIC50 was more than 6.00.
